The values that follow come from a melting point compilation (Tetko et al.; mined from patent text by program, amines drawn as free bases though some values may be those of a salt).

Molecules are shown by their SMILES. Residues, ends and D or L forms follow the SMILES beside them. *: point of attachment. Boc = CC(C)(C)OC(=O)*; OBn = c1ccc(CO*)cc1; Bn = c1ccc(C*)cc1

Consider `COC(=O)C(CC(C)([N+](=O)[O-])[N+](=O)[O-])C(=O)OC`, for which the melting point (in general, the temperature of the solid-liquid transition) was 44 °C.
Under `CCOC(=O)CC(C)(C)CC(=O)C1CC2=C(CC(C)(C)CC2)N(C2CCCCC2)C1` (stereo not given) stands 44 to 46 °C; under `O=S(=O)(c1ccc(-c2ccc3cnc(Nc4ccc(N5CCOCC5)cc4)nn23)cc1)N1CCCC1`, 182 to 184 °C; under `Cc1ncsc1C(O)c1ccc(Cl)cc1` (stereo not given), 134 °C.
Under `CC(C)(C)C(=O)OCCN(CCOC(=O)C(C)(C)C)C(=O)COC(=O)C(C)(C)C` stands 51.4 °C.
In the case of `C1=C(c2c[nH]c3ccccc23)CCN(CC2COc3ccc4c(c3O2)CCCO4)C1` (stereo not given), the melting point was in the range of 186 to 187 °C.
Consider `Oc1ccc2ccccc2c1N=Nc1ccc2[nH]nnc2c1`, for which the melting point amounted to 250 °C.
Under `O=C(O)c1cc(=O)c2c(o1)-c1ccccc1SC2` stands 251 to 253 °C; under `Cc1cc(F)ccc1Nc1nc(N2CCc3ccccc3C2C)c2cccc(OCCO)c2n1` (stereo not given), 120 to 122 °C; under `O=C(Nc1ccc2cc(CN3CCCCC3)ccc2c1)N1CCC(c2ccc(F)cc2)CC1`, 209 to 211 °C.
To `c1ccc(C2CCc3ccccc3S2)cc1` (stereo not given) belongs 45 to 49 °C; to `CSc1ccc(-c2csc(NC(C)=O)n2)cc1`, 235 to 236 °C.
To `CCOC(=O)[C@@H]1CSC=CN1C(=O)[C@@H](Cc1ccccc1)N1C(=O)c2ccccc2C1=O` (relative stereo) belongs 193 °C; to `COC(=O)c1sc(C(=O)OC)c(-c2ccoc2)c1O`, 102 °C; to `COc1ccccc1CNC(=O)C1N(C(=O)C(O)C(Cc2ccccc2)NC(=O)c2cccc(O)c2C)CSC1(C)C` (stereo not given), 123 to 125 °C.
Turning to `Cc1cc(Cl)cc(C(=O)c2ccc(S(C)(=O)=O)cc2Cl)c1O`, the melting point fell in the range of 175 to 180 °C.
`Clc1ccc(C(c2ccc(Cl)cc2)(c2nc[nH]n2)n2ccnc2)cc1` displayed a melting point of 188 to 191 °C.
Under `CCOC(=O)C1(c2ccc(Cl)cc2)CCN(C(=O)CC(c2ccccc2)(c2ccccc2)c2ccccc2)CC1` stands 95 to 98 °C; under `CC(=O)C(=C1SCCCN1Br)[N+](=O)[O-]`, 101 to 104 °C.
Compound `C=C(C)c1cccc2c1nc(-c1c(F)cccc1F)n2Cc1c(F)cccc1F` returned a melting point of 156 to 158 °C.
Under `CSc1ncc2cc(Br)c(=O)[nH]c2n1` stands 266 to 270 °C; under `CC(C)(C)c1cc(CCC2(CCc3cc(C(C)(C)C)c(O)c(C(C)(C)C)c3)NC(=O)NC2=O)cc(C(C)(C)C)c1O`, 218 to 220 °C.
Under `CCCC(C(=O)N(C)C)n1cc(C)c(-c2ccccc2)n1` (stereo not given) stands 84 to 86 °C.
On to `O=C(O)Cc1ccc(OCc2ccccc2)c(OCc2ccccc2)c1`, for which the melting point was in the range of 112 to 113 °C.
On to `CC(C)CC(NC(=O)C(Cc1ccc(OCc2ccccc2)cc1)NC(=O)OC(C)(C)C)C(=O)OCc1ccccc1` (stereo not given) (Boc-Tyr(Bn)-Leu-OBn; configuration not given here), for which the melting point lay in the range of 100 to 103 °C.
Under `CCN(c1c(Cl)c(C(F)(F)F)cc2[nH]c(=O)c(=O)[nH]c12)S(C)(=O)=O` stands more than 300 °C.
In turn, `O=C(Nc1cn2cc(-n3ccnc3)ccc2n1)c1ccc(-c2ccoc2)cc1` showed a melting point of 261 to 263 °C.
To `COc1nc(C(F)F)cnc1NS(=O)(=O)c1cccc(Cl)c1Cl` belongs 117 to 118 °C; to `O=S(=O)(Nc1cc(Br)c(O)c2ccccc12)c1cccs1`, 128 to 130 °C.
To `CN1CCN(c2cc([N+](=O)[O-])ccc2Cl)CC1` belongs 63 to 64 °C; to `OCC1OC(n2c(Br)nc3c(NCc4ccccc4)ncnc32)C(O)C1O` (stereo not given), 96 to 98 °C; to `Cc1oc(-c2ccccc2)nc1COc1ccc(CON=C(CCC(N)=O)c2ccccc2)cc1`, 110 to 112 °C.
To `O=C(Nc1cccc(-n2nc(C(F)(F)F)cc2C(F)(F)F)c1)c1cc([N+](=O)[O-])ccc1Cl` belongs 147 to 152 °C; to `COC(=O)C1=NC2=COc3c(OC)cccc3N2C1C(=O)O` (stereo not given), 167 to 168 °C.
`Cc1cc(NCC(C)C)c(N)c2nnnn12` returned a melting point of 159 to 162 °C.
In turn, `COc1ccc(N)c2nccc(Cl)c12` showed a melting point of 111 to 115 °C.
`CC(=O)OCCSc1nc(C(C)(C)C)nn1C(=O)N(C)C` returned a melting point of 110 to 112 °C.
The compound `COc1nc(OC)nc(SC(C(=O)O)C(C)(C)c2ccccc2)n1` (stereo not given) came in with a melting point of 115 to 118 °C.
In turn, `COc1cc2c(cc1Nc1ncc(Cl)c(Nc3ccc(N4CCOCC4)cc3OC)n1)CCN(CCNC(C)=O)CC2` had a melting point of 50 to 65 °C.
With `CS(=O)(=O)n1ccc(-c2ccc(Oc3ccccc3)cc2)n1`, the melting point came to 136 °C.
To `CCc1ccc(OCCCN2CCC(C(O)(c3ccc(F)cc3)c3ccc(F)cc3)CC2)c(OC)c1` belongs 118 to 120 °C; to `C(=Cc1ccc2ccccc2c1)c1ccccc1`, 143 to 145 °C; to `CCC(Cc1ccc(OC)c(OCCc2ccccc2)c1)NC(=O)OC(C)(C)C` (stereo not given), 88.5 to 89.5 °C.
Under `CCCc1c(OCC(O)COc2ccc3ccc(C(=O)O)cc3c2CCC)ccc(C(C)=O)c1O` (stereo not given) stands 125 to 126 °C; under `Nc1cc(C(=O)O)cc(S(N)(=O)=O)c1Nc1ccccc1`, 251 °C; under `Cc1ccc(C(=O)N2CCc3cc(C(=O)NO)ccc3C2)cc1`, 105 to 108 °C.
To `Cc1oc(-c2ccccc2)nc1COc1ccc(CON=C(CCC(=O)O)c2ccco2)cc1` belongs 124 to 125 °C; to `Cc1cc(=O)c2ccc(OCCCN3CCC(NC(=O)c4ccccc4)CC3)cc2o1`, 173 to 175 °C.
On to `CCc1nc(C(=O)OC)c(Cl)c(N)c1F`, for which the melting point fell in the range of 109 to 110 °C.
Under `Cc1cc(C)c2nc(NC3CCN(CCC(N)=O)CC3)n(Cc3nc(C)ccc3O)c2c1` stands 212 °C; under `CCc1cc(C(C)=O)c(O)cc1OCCCCCN`, 75 to 76 °C; under `COc1ccc(Cn2c(=O)c3ccccc3n(CCCCl)c2=O)cc1`, 124 to 125 °C.
To `C=CNC(=S)n1nc(Oc2ncc(C(F)(F)F)cc2Cl)cc1C` belongs 90 to 92 °C.
To `O=C1c2c(F)c(F)c(F)c(F)c2C(=O)N1c1c[nH]c(=O)[nH]c1=O` belongs 350 to 355 °C.
As to `CC1=C(c2ccccc2)C(=O)c2ccccc2C1=O`, the melting point was 235 to 236 °C.
In turn, `CCn1c(=O)c(-c2cc(OC)cc(OC)c2)cc2cnc(Nc3ccncc3)nc21` had a melting point of 305 to 307 °C.
In turn, `Cc1c(C(F)(F)F)n(C)c(=O)n(-c2cc(N)c(C#C[Si](C)(C)C)cc2F)c1=O` yielded a melting point of 192 to 198 °C.
Compound `Cc1ccc(-c2[nH]c(=O)n(C3CCN(Cc4ccccc4C)CC3)c2C)cc1` gave a melting point of 262 °C.
For `COc1cnn(C)c(=O)c1-c1c(C)cc(C)cc1C`, the melting point was in the range of 186 to 192 °C.
For `N#Cc1nn(-c2c(Cl)cc(C(F)(F)F)cc2Cl)c([N+](=O)[O-])c1OC(F)F`, the melting point lay within 72.5 to 74 °C.
`CCN1CCN(C(C(=O)O)c2ccc(Nc3nc(-c4cccc(NC(=O)c5cc6c(s5)CCCCC6)c4C)cn(C)c3=O)cc2)CC1` (stereo not given) came in with a melting point of 168 to 170 °C.
Under `N#Cc1c2c(nn1-c1ccc(Cl)cc1F)CCCC2` stands 83 to 84 °C; under `CC(=O)c1c(N)ncn1C1c2ccccc2CC1(C)C` (stereo not given), 174 to 175 °C.
Take `O=C(O)COc1ccc(-c2c3ccccc3c(Br)c3sc4ccccc4c23)cc1`: the melting point was 198 to 200 °C.
`COc1cccc(Oc2nc(N)n3nc(-c4ccco4)nc3n2)c1` returned a melting point of 226 to 227 °C.
For the compound `O=C1CSC(=S)N1c1cccc(C(F)(F)F)c1`, the melting point lay in the range of 177 to 178 °C.
Compound `O=C(O)CCC(CCNCCc1ccccc1)n1nc(Cc2ccc(F)cc2)c2ccccc2c1=O` (stereo not given) had a melting point of 190 to 191 °C.
Under `CN1CCC(C2(O)c3ccccc3Oc3ccc(Cl)cc32)CC1` (stereo not given) stands 206 to 208 °C.
With `CN(OCc1ccccc1)C(=O)Nc1cccc(S(C)(=O)=O)c1`, the melting point lay within 110 to 111 °C.
To `O=C(CCCCc1ncc[nH]1)NNC(=O)N1Cc2ccccc2Oc2ccc(Cl)cc21` belongs 164 to 166 °C; to `N#Cc1csc(-c2csc(C(O)(Cn3cncn3)c3ccc(F)cc3F)c2)n1` (stereo not given), 172 to 173 °C; to `CCCCc1nc2c(N)nc3cc(-c4ccc(OC)cc4OC)ccc3c2n1CC(C)C`, 187 to 189 °C.
Under `N#Cc1c(N2CCN(C(=O)c3cccs3)CC2)c2cc(F)ccc2n(Cc2ccccc2)c1=O` stands 246 °C; under `CCOc1ccc(C(=O)NCc2ccc3c(c2)C(=O)N(C2CCC(=O)NC2=O)C3=O)nn1` (stereo not given), 238 to 240 °C; under `CC(C)(C)OC(=O)N1CCCc2onc(O)c2C1`, 170 to 171 °C.
Compound `Cn1ncnc1COc1nn2c(-c3ccccc3)nnc2cc1C12CCC(CC1)C2` came in with a melting point of 244 to 246 °C.
As to `Cc1[nH]c(Cl)c(C#N)c1SC#N`, the melting point worked out at 171 °C.
Under `CC1(C)Oc2cc3nc(S)[nH]c3cc2O1` stands more than 300 °C.
Under `O=C(NCCO)c1cccc(-c2ccc3c(c2)N(c2cc(Cl)cc(Cl)c2)CC3)c1` stands 108 to 109 °C; under `CCCc1ccnc2c(=O)[nH]c(-c3cc(S(=O)(=O)N4CCC(C(=O)OCC)CC4)ccc3OCC)nc12`, 204 to 205 °C; under `c1nc(Nc2ccc3[nH]ccc3c2)c2sc(-c3ccc(CNC4CC4)cc3)cc2n1`, 176 to 180 °C.
To `CCCCCCCCCCCN(CC)C(=O)N(O)O` belongs 42 to 43 °C.
`CC1CN(CC(=O)c2ccccc2)c2nc(-c3ccncc3)cc(=O)n2C1` (stereo not given): the melting point was in the range of 202 to 203 °C.
Under `COc1ccc2c(CCBr)c[nH]c2c1` stands 98 to 101 °C.
Take `COc1cc(C)cc(-c2nn(CC#N)cc2-c2cc(NC[C@H](C)O)nc(Cl)n2)c1`: the melting point amounted to 197 °C.
